This is an account of results in PMC12053052, “Comprehensive physicochemical, biophysical, and in vitro characterization of lung surfactant SP-A peptidomimetics” (Rsc Pharmaceutics, 2025).

Values joined by “and” are separate entries in the source; they are usually repeats but may differ in a detail not shown here. Equal entries are not always repeated. “Also recorded” adds a separate entry of the source. No end group written: not given here.

Experiment in series [1]: not given
This is another data set of the same source.

Series [2] has as its system A549 (human alveolar epithelial lung cells). Description: In vitro cell viability, resazurin assay. It is filed as cell-based. As to conditions: 0.1–1000 μM peptide, 72 h, relative to growth medium control, n = 6, ANOVA/Tukey p < 0.05. The source says: (§1) The cell viability of three different human pulmonary cell lines from different lung areas representing the conducting airways, the mid-lung and deep lung respiratory regions of the small airways. They are A549 (human alveolar epithelial lung cells), H358 (human bronchioalveolar epithelial cells) and NCI-H441 (human papillary lung adenocarcinoma cells), were studied using the Resazurin assay. Pulmonary cell lines A549 (ATCC® CCL-185™), H358 (ATCC® CRL-5807™) and NCI-H441 (ATCC® HTB-174™) were purchased from the American Type Culture Collection ATCC® (Manassas, VA). As previously reported,[16] A549 and H358 were grown in Dulbecco's modified eagle's medium (DMEM) Advanced 1× supplemented with 10% v/v fetal bovine serum (FBS), Pen-Strep (100 U mL^−1, 100 μg mL^−1), Fungizone® (0.5 μg mL^−1 amphotericin B, 0.41 μg mL^−1 sodium deoxycholate) and 2 mM L-glutamine obtained from Gibco® by Life Technologies (Thermo Fisher Scientific Inc., Waltham, MA). H441 cell line was grown in RPMI 1640 with L-glutamine Gibco® by Life Technologies (Thermo Fisher Scientific Inc., Waltham, MA).
(§2) The assay was conducted using similar previously reported conditions.[16] Briefly, in Nunc™ MicroWell™ 96-well optical-bottom plates with polymer base (ThermoScientific Waltham, MA) each cell line was seeded at a concentration of 5000 cells in 100 μL per well (six wells, n = 6) and allowed to attach for 48 hours. The cells were treated with 100 μL volume of different concentrations (0.1–1000 μM) of the peptides dissolved in the respective media. After 72 hours, the plate was treated with 20 μL of 10 μM resazurin solution. After 3–4 hours, the fluorescence intensity was read at 514 nm (excitation) and 590 nm (emission) wavelengths using the Synergy H1 Multi-Mode Reader (BioTek Instruments, Inc., Winooski, Vermont). The corresponding growth media was used as control for each cell line. Relative viability was calculated as a ratio of fluorescence intensity of the sample to the control. [drawing 1]
Background: The colour change of resazurin is a common sign of viable cells or microbes.

Series [3] relates to NCI-H441 (human papillary lung adenocarcinoma cells). Briefly: In vitro cell viability, resazurin assay. It is filed as cell-based. Conditions: 0.1–1000 μM peptide, 72 h, relative to growth medium control, n = 6, ANOVA/Tukey p < 0.05.
Excerpt: as §1, §2

Series [4] can be described thus: In vitro solubility in pure solvents. It is filed as physicochemical. Conditions: excess solid, rotated 24 h at ambient room temperature, 0.2 μm filtered, HPLC-UV 220 nm, mean ± SD, N = 3; for solubility thermodynamic at 24 h: PBS, pH 7.4, aqueous buffer, thermodynamic from solid. How it is done: In vitro solubility measurements were conducted using conditions earlier reported.[13] Excess of peptide powder was added to known volume of pure solvent in a glass vial. The vial was allowed to rotate at ambient room temperature for 24 hours.[13] The test solution was filtered using 0.2 μm PTFE or PVDF membrane filters for organic and aqueous solvents respectively. The filtered solution was chemically analyzed by HPLC using conditions described in the HPLC section below.
(§3) High-performance liquid chromatography was used to quantify the peptides. The analysis was performed with a Shimadzu LC-2010AHT HPLC system (Kyoto, Japan), with autosampler fitted to a 20 μL sampling loop and dual wavelength UV-Vis detector and reverse phase C18 Phenomenex Prodigy™column (Torrance, CA) with 250 × 4.6 mm, 5 μm particle size. The mobile phase consisted of (A) 0.065% TFA in water and (B) 0.05% TFA in ACN at a flow rate of 1.0 mL min^−1. Analysis was performed using the following gradient elution method: 100% A to 100% B in 15 minutes, maintained at 100% B until 17.5 minutes. The percentage of A reached 100% in 19.5 minutes and maintained until 25 minutes. The column was maintained at 25 °C. The injection volume was 20 μL. The UV detector was set at 220 nm wavelength. The solvents used to dissolve 10-AA and 20-AA peptide analysis were PBS and pure water, respectively.

Series [5] can be described thus: Octanol/water partition coefficient. It counts as physicochemical. As to conditions: shake-flask 1-octanol/water 50:50 v/v, 3 mg peptide in 3 mL, 37 °C, 24 h shaking + 24 h separation, HPLC-UV 220 nm, mean ± SD, N = 3. How it is done: Using similar conditions reported earlier,[14] octanol/water partition coefficient (P) measurements were conducted. A mass of 3 mg of peptide powder was added to 3 mL of 1-octanol (1.5 mL) and water (1.5 mL) to create a 50 : 50 v/v octanol : water ratio in a glass vial and allowed to shake in temperature-controlled water bath at 37 °C. After 24 hours, the shaker was stopped and the vial was undisturbed for 24 hours to allow the solvents to separate. An aliquot (20 μL) of water phase and octanol phase was injected into HPLC to quantify the peptide concentration in each phase.
as §3, with “The solvents used to dissolve 10-AA and 20-AA peptide analysis were PBS and pure water, respectively.” left out

Series [6] deals with H358 (human bronchioalveolar epithelial cells). Description: In vitro cell viability, resazurin assay. It counts as cell-based. Conditions: 0.1–1000 μM peptide, 72 h, relative to growth medium control, n = 6, ANOVA/Tukey p < 0.05.
Excerpt: as §1, §2

H-KEQCVEMYTD-OH: the Melting temperature (Tm), characteristic endothermic peak is 171 °C and 168 °C. This substance also gave an Enthalpy (ΔH) of melting in series [1] of 3.08 J/g.
For the substance H-PAGRGKEQCVEMYTDGQWND-OH, the Enthalpy (ΔH) of melting in series [1] was 1.08 J/g.
On to PAGRGKEQCVEMYTDGQWND [SP-A 20-AA AC], for which, in series [2], the “Relative cell viability, A549” value is given as “significantly reduced cell viability at concentrations above 100 μM”. In addition, the “Relative cell viability, H441” value in series [3] was “reduction in viability at higher concentrations; also recorded: significantly reduced cell viability at concentrations above 100 μM”. In series [4] (thermodynamic), the “Solubility in absolute ethanol” value came to 20 ± 20 µg/mL and the Solubility in methanol turned out to be 20 ± 5 µg/mL.
Turning to KEQCVEMYTD [SP-A 10-AA AC], in series [5] (read-out: Log P (octanol/water partition coefficient)), the logP was -1.07 ± 0.2. Besides, in series [4] (thermodynamic), the “Solubility in MilliQ water” value was determined as 420 ± 40 µg/mL, the “Solubility in PBS (pH 7.4)” value is recorded as 1.16 ± 0.01 mg mL^−1, the “Solubility in absolute ethanol” value was found to be 40 ± 10 µg/mL and the Solubility in methanol worked out at 10 ± 0.3 µg/mL.
In general, thermodynamic solubility refers to the concentration in solution at equilibrium with solid. For the substance KEQCVEMYTD [SP-A 10-AA PS], the “Log P (octanol/water partition coefficient)” value in series [5] is recorded as −1.79. Further, the thermodynamic solubility at 24 h in series [4] turned out to be 1810 ± 20 µg/mL. Besides, in series [4] (thermodynamic), the “Solubility in MilliQ water” value was 12200 ± 50 µg/mL, the “Solubility in absolute ethanol” value came out at 2060 ± 30 µg/mL and the Solubility in methanol was 4250 ± 10 µg/mL.
As to PAGRGKEQCVEMYTDGQWND [SP-A 20-AA PS], in series [6], the “Relative cell viability, H358” value is given as “decreased viability at higher concentrations; also recorded: statistically significant decrease in viability only with 20-AA PS at 1000 μM”. Also, the thermodynamic solubility at 24 h in series [4] turned out to be 470 ± 4 µg/mL. In series [4] (thermodynamic), the “Solubility in absolute ethanol” value turned out to be 110 ± 50 µg/mL and the Solubility in methanol was 1450 ± 20 µg/mL.
